Results: patent US20150320836A1, “CRYOPRESERVATION OF CELLS INSIDE A MACRO-ENCAPSULATION DEVICE” (The Regents of the University of California, priority 2012, published 2015)
Like-named read-outs stand apart in the source and are kept apart here.

Tests used:
[1] = system: hESCs; assay: Exposure of dissociated hESCs to cryoprotective agent; format: cell-based, human; settings: 10% DMSO 10 or 30 min, 4° C. or 37° C., no freezing
Procedure: hESCs are cultured as monolayers and are dissociated with Accutase, pelleted, and resuspended with either normal culture media (CM) as a positive control for cell viability or with the Freeze Medium (FM) containing 10% DMSO. Cells are either plated immediately in CM or incubated in FM for up to 30 minutes. Following incubation time, cells are allowed to reattach to tissue culture plates for 24 hours and then assessed for attachment and viability. DMSO concentration, freezing time, and freezing temperature, for example, may be varied to obtain best results for a given culture. […] As a result, the Viable Yield (the product of Attachment and Viability) is also similar among the 4 incubation conditions. Thus, exposure to DMSO without freezing produces a minimal effect on survival of dissociated cells monolayer cultures.

[2] = system: human Ins-G cells; assay: Freezing dissociated Ins-G cells after pre-freeze incubation with DMSO; format: cell-based
Procedure: The effects of preincubation with DMSO on freeze/thaw viability were investigated. Freezing dissociated cells pre-exposed to Freeze Media containing 10% DMSO (FIG. 1B) also had no effect on cryosurvival, which per se was exceptionally good (up to 77-79% to control). In order to verify requirement for cryoprotective agents (CPA) in freezing, a sample was frozen in culture media (no DMSO). As expected, survival was very poor (11% in comparison to the positive control). […] Without being bound to theory, a possible explanation is that cell mortality resulted from slow (suboptimal) freezing injury, when cells are frozen at the rate substantially slower than the equilibrium “Mazur's rate” when the cells are just in equilibrium with freezing outer milieu. The suboptimal rates in the inverted U curve usually contributed to the effects of highly concentrated solutes rather than immediate cell destruction and fast necrosis associated with the supra-optimal (fast freezing, according to the 2-factor hypothesis developed by Mazur (Mazur et al. (1972) Experimental Cell Res., 71:345-349; Mazur et al. (2008) Biol Reprod, 78:2-12). The cell membrane rupture and other colligative osmotic damage due to excessive shrinkage and swelling usually manifest quickly as the loss of selective permeability properties so the cells become permeable to large particle dyes such Trypan Blue, soon after the treatment. The osmotic damage usually decreases with the temperature and step-wise addition and dilution (which, in fact, exposes the cells to CPA longer than an abrupt one-step addition or dilution). In contrast, a long exposure to a CPA or/and to very concentrated solutions of the cryoprotectant can manifest later in the form of, e.g., death due to specific chemical toxicity, particularly on membrane and epigenetic level as it may affect protein folding and membrane lipid bilayers, as it is shown for some types of cells (see, for example (Katkov II et al. (2006) Cryobiology, 53:194-205) for references. In contrast to osmotic damage, chemical toxicity usually exacerbates at longer exposure at higher temperature, and the prevalence of one mode vs. another can be easily differentiate by treating cells with higher temperatures and/or for longer exposure to the CPA (Katkov II (2011) Cryobiology, 62:242-4; Katkov II et al. (1998) Cryobiology, 37:325-38; Katkov II et al. (2007) Cryo Letters, 28:409-27).
(§1) Cells cultured as monolayers were dissociated with Accutase, pelleted, and resuspended with either normal culture media (CM) as a positive control for cell viability or with the Freeze Medium (FM) containing 10% DMSO. […] Following incubation time, cells were allowed to reattach to tissue culture plates for 24 hours and then assessed for attachment and viability. […]

[3] = system: islet like cell clusters (ICCs) of human Ins-G cells; assay: ICCs loaded or frozen in TheraCyte encapsulation device; format: cell-based; settings: frozen in TheraCyte device in 10% DMSO freezing medium
Procedure: Observing that the clusters can be exposed to DMSO both before freezing and after thawing when the cells were frozen in cryovials, cells were then frozen in the TheraCyte™ device (FIGS. 4A-C). Cells were exposed to DMSO during loading into the device. The port was then trimmed so that the device could fit a 1.5 mL cryovial which also contained 10-% DMSO freezing medium and froze them. After the vial was thawed, DMSO was eluted by placing the device in gently swirling medium solution (using magnetic stir bar). Without being limited by theory, this treatment may be sufficient to wash out the majority of DMSO before transplantation. Moreover this procedure mimics slow elution if the device is transplanted immediately after thawing, as a low concentration of DMSO is presumed to be non-toxic even for small animals. […] Barely 1/10 of loaded cells survived the whole procedure (including cutting device in pieces and placing into the dish, washing that out in 48 hrs, etc. (Experiment 4, FIG. 5). There can be several explanations for the cell loss, such as following.
We next addressed the effects of freezing ICCs inside the encapsulation device. As a control for freezing, ICCs resuspended in FM were loaded into devices which were sealed and then immediately opened and cells removed. Cell attachment following release from device averaged 64% and of the attached cells, 59% were viable. […]

[4] = system: islet like cell clusters (ICCs) of human Ins-G cells; assay: Freezing ICCs: pre-freeze DMSO exposure and centrifugation; format: cell-based
Procedure: To more closely mimic the morphological structure of pancreatic islets, cells cultured as 3-dimensional ICCs were investigated. The first technical question was how to harvest clusters, whether by gentle (200 g×5 min) centrifugation or by settling by gravitational force (1 g). Here prefreeze exposure of the clusters to 10% DMSO at room temperature and +37° C. before freezing was investigated.
Two negative controls were employed. First (sample 1 on FIG. 2) were non-frozen clusters but the cells were exposed to 10% of DMSO for 20 min at +37° C. and centrifuged (200 g×5 min) The second control (Column #2) were cells that were not exposed top DMSO and frozen w/o it, with the same other procedures that in the first control. […] Apparently, some clusters were lost because they had not settled to the bottom of the tube either due to sub-optimal time or length of column 15-mL tube (Katkov II et al. (1999) Cell Biochem Biophys, 31:231-45). Cell clusters, it was observed, are more sensitive than dissociated cells from monolayer cultures even before and freezing (viability after thawing for the re-attached cells was in range of 61-72%, which was substantially lower than in monolayers (Experiment 2, FIG. 2). Thus, natural sedimentation was used with an increased time and decreased column length by using 50-mL conical tubes instead for the next experiments. […]

[5] = system: insulin-GFP transgene in human Ins-G ICCs; assay: Insulin-GFP expression after freezing ICCs and post-thaw DMSO exposure; format: cell-based; settings: frozen, post-thaw DMSO 20 minutes at 37° C.
Text: In addition to survival, it is important that ICCs retain insulin gene expression during these manipulations. Human Ins-G cells express endogenous insulin message in response to tamoxifen (which activates the transcription factor […] by promoting translocation from the cytoplasm to the nucleus). The cells were also engineered to express GFP from an insulin transgene. Therefore, GFP expression in response to tamoxifen is a surrogate for insulin expression. We examined GFP expression in control ICCs (not frozen, not exposed to DMSO) as well as in cells frozen and exposed to DMSO for 20 minutes at 37° C. (FIG. 3B).

[6] = system: human Ins-G cells; format: cell-based
Procedure: The sensitivity of dissociated human Ins-G cells to DMSO without cryopreservation (CP) was investigated. […] Temperatures ranging from 0° C. to 37° C. were investigated. Regardless, cell viability was practically indistinguishable from control cells not exposed to DMSO (FIG. 1A, column #1).
In prior studies with a macro-encapsulation device, we loaded cells into devices immediately prior to transplantation. Thus, until now we have not exposed encapsulated cells to CPA, yet the ability to freeze preloaded devices would ensure reproducibility between experiments and among users. The process of loading cells into the device requires approximately 20 min; beginning when cells are drawn up into a Hamilton syringe and slowly dispensed into the device, and ending when the syringe has been removed from the device port and the port has been sealed. We hypothesized therefore, that cells must withstand pre-freeze exposure to CPA for 20 minutes in order to be successfully cryopreserved in devices. […]
as §1

[7] = system: islet like cell clusters (ICCs) of human Ins-G cells; format: cell-based; settings: for viable yield: human
Procedure: While the level of DMSO will gradually decrease during elution, the extreme point was tested and the same high level of DMSO was maintained for the longevity of the entire exposure.
Increase of temperature of elution will shorten the time of elution but DMSO might cause increased toxicity at increased temperature. Driven by this dilemma, extreme treatments of post-thawed clusters were checked starting with immediate washing of DMSO, maintaining them for 20 min on 4° C. before washing, at 25° C. for 10 and 20 min and at +37° C. at 10 and 20 min (Experiment 3, FIG. 3A). […] There was one exception however, the cells incubated at room temperature for 20 minutes performed slightly poorer than the other treatments. […] This phenomenon was observed over a large number of experiments (N=6), but its basis is unclear. […] Further experiments would be needed to determine with certainty that RT is actually more detrimental than +37° C. or ice. The surviving cells retain insulin expressing capacity for all treatments (FIG. 3B).
Ultimately, the ability to freeze cell clusters inside an encapsulation device may require that the cells survive the time required to remove CPA upon thawing. Normally, when (unencapsulated) cells are thawed, CPA is removed quickly, either by centrifugation or by extensive dilution into culture media. However, for a cell-filled device, CPA removal will be accomplished via diffusion of CPA out of device into a large volume of wash media, until equilibration is reached. We estimated that approximately 20 minutes will be required to reach equilibrium, during which time cells are exposed to CPA. We therefore first examined the effects of post-thaw exposure to CPA in unencapsulated ICCs. Because equilibrium is also temperature dependent, we exposed thawed ICCs to CPA at 25° C. or 37° C. As we can see from FIG. 3A, sample 1, a control which was not exposed to CPA or frozen, reattachment of ICCs to tissue culture plates is 48%, lower than reattachment of dissociated cells (FIG. 1, sample 1). […]

[8] = pre-freeze 10% DMSO 10 or 30 min, +4° C. or +37° C.

What does the source list for `C[S+](C)[O-]` [DMSO, dimethyl sulfoxide]?
survival [1]: ≥ 80%; cryosurvival relative to control ([2]; frozen in Freeze Media with 10% DMSO after pre-exposure): 77-79%; Attachment efficiency after freezing [2, 8]: 73-77%; Viable Yield after freezing [2, 8]: 63-73%; viability of re-attached cells after freezing [2, 8]: 86-92%; fraction of loaded cells surviving the whole procedure [3]: 1/10; viability after thawing of re-attached cells ([4]; ICCs frozen after pre-freeze 10% DMSO exposure): 61-72%; viable yield ([4]; clusters exposed to 10% DMSO at +37° C. for 20 min, centrifuged 200 g×5 min): 31%; GFP expression versus control ICCs [5]: no significant difference; tolerance of exposure to 10% DMSO [6]: well tolerated; Viable Yield (product of Attachment and Viability) ([6]; human, 10 %): 63-73%; tolerance of post-thaw exposure to DMSO [7]: well tolerated; viable yield [7]: 35-38%; viable yield ([7]; 20 min): 21%
